“Also recorded” adds a separate entry of the source.
Legend:
[1] = tested on: human cardiac myocytes (HCM); assay: NECA-induced IL-6 release from human cardiac myocytes (Example 7); assay type: cell-based; details: for effect of NECA on HCM (IL-6 release): NECA in combination with antagonist
Method: This example uses human cardiac myocytes to test two other A2B adenosine receptor antagonists on their effect on NECA-induced IL-6 release.
Human cardiac myocytes (HCM) were treated with NECA alone, or in combination with Compound A, Compound B (N-[5-(1-cyclopropyl-2,6-dioxo-3-propyl-2,3,6,7-tetrahydro-1H-purin-8-yl)-pyridin-2-yl]-N-ethyl-nicotinamide, also known as ATL-801) or Compound C (2-(4-benzyloxy-phenyl)-N-[5-(2,6-dioxo-1,3-dipropyl-2,3,6,7-tetrahydro-1H-purin-8-yl)-1-methyl-1H-pyrazol-3-yl]-acetamide).

[2] = tested on: rats with MI (25 minutes coronary occlusion followed by reperfusion); assay: Rat model of post-MI remodeling: serial echocardiograms (Example 6); assay type: in vivo
Method: The effects of Compound A in a rat model of post-MI remodeling and VT were determined. MI was caused by 25 minutes occlusion at the left anterior descending coronary ligation followed by reperfusion. One week later, rats were administered either vehicle or Compound A (100 mg/kg) once daily by oral gavage. Serial echocardiograms (ECHOs) to measure LV ejection fraction (LVEF), stroke volume and LV end systolic volume (LVESV) were obtained at baseline, 1 week and 5 week post-MI. Electrophysiological studies, optical mapping, histology and biomarker analysis were conducted at 5 week post-MI.

[3] = tested on: primary human cardiac fibroblasts (HCF); assay: NECA-induced release of IL-6, collagen, ST-2, PAPPA and expression of fibrotic markers in human cardiac fibroblasts (Example 2); assay type: cell-based
Method: Real-time RT-PCR was performed as published using Stratagene PCR equipment (La Jolla, Calif.). Zhong H., et al., “A2B adenosine receptors increase cytokine release by bronchial smooth muscle cells,” American Journal of Respiratory Cell and Molecular Biology, 30(1): 118-125 (2004).
Expression of AdoR, α-smooth muscle actin and α-1 pro-collagen was determined using real-time RT-PCR. The concentration of IL-6, soluble ST-2 and PAPPA (Pregnancy-associated plasma protein A) in the cell supernatants were measured using ELISA, and the concentration of soluble collagen were determined using Sircol™ collagen assay.

Question: `CCCn1c(=O)n(C2CC2)c(=O)c2[nH]c(-c3ccc(N(CC)C(=O)c4cccnc4)nc3)nc21` [Compound B, N-[5-(1-cyclopropyl-2,6-dioxo-3-propyl-2,3,6,7-tetrahydro-1H-purin-8-yl)-pyridin-2-yl]-N-ethyl-nicotinamide] was tested. Which “effect of NECA on HCM (IL-6 release)” value [1] did it give?
Answer: completely abolished

Question: With `CCCn1c(=O)c2[nH]c(-c3cc(NC(=O)Cc4ccc(OCc5ccccc5)cc4)nn3C)nc2n(CCC)c1=O` [Compound C] as the molecule, how does the “effect of NECA on HCM (IL-6 release)” value [1] read?
Answer: completely abolished

Question: With `Cc1ccc(=O)n(-c2ccccc2)c1` [pirfenidone, reference compound] as the molecule, how does the “reduction of LVEF” value ([2]; post-MI, Example 6 and FIG. 12B) read?
Answer: only slowed

Question: What about the “LVESV (so in the source): increase and further reduction” value ([2]; rat post-MI, comparison with Compound A, FIG. 12B) of the same molecule?
Answer: did not increase; also recorded: only slightly inhibited

Question: What does the source list for N-ethylcarboxamide adenosine [NECA]?
Answer: soluble collagen concentration after stimulation ([3]; NECA 10 μM, basal 3.4±0.2): 6.0 ± 0.4 µg/mL; production of collagen, fold induction ([3]; NECA 10 μM, p<0.05): 1.8±0.1 fold; expression of α-1 pro-collagen ([3]; NECA 10 μM, real-time RT-PCR): increased; expression of α-smooth muscle actin ([3]; NECA 10 μM, real-time RT-PCR): increased; PAPPA concentration after stimulation ([3]; basal 1.4±0.5): 6.2 ± 0.8 ng/mL; soluble ST-2 concentration after stimulation ([3]; basal 1.5±0.1): 2.6 ± 0.1 ng/mL; release of IL-6, maximal increase over the basal level ([3]; concentration-dependent): 2.4±0.1 fold; release of PAPPA, fold induction ([3]; p<0.05): 4.4±0.6 fold; release of soluble ST-2, fold induction ([3]; p<0.05): 1.7±0.1 fold; IL-6 release from human cardiac myocytes ([1]; NECA alone): significantly increased

Source: US20120258974A1, “USE OF A2B ADENOSINE RECEPTOR ANTAGONISTS FOR TREATING HEART FAILURE AND ARRHYTHMIA IN POST-MYOCARDIAL INFARCTION PATIENTS” (GILEAD SCIENCES, INC., priority 2011, published 2012)
